In patent publication US20140155406A1, “4-IMIDAZOPYRIDAZIN-1-YL-BENZAMIDES AND 4-IMIDAZOTRIAZIN-1-YL-BENZAMIDES BTK INHIBITORS” (priority 2011, published 2014):

Tests used:
Format in all cases: biochemical
Lyn enzyme = biological target: T1, Lyn enzyme (Homo sapiens, UniProt P07948); assay: Lyn enzyme activity, IMAP fluorescence polarization assay; details: 60 min pre-incubation, 2 μM ATP (Km)
T1 construct: purchased Millipore 14-510
Protocol: Lyn enzyme activity is measured using the IMAP (immobilized metal ion affinity-based fluorescence polarization) assay as outlined below.
Lyn enzyme (Millipore catalog#14-510), is diluted to 250 mU/mL in KR buffer (10 mM Tris-HCl, 10 mM MgCl2, 0.01% Tween-20, 0.05% NaN3, 1 mM DTT, 2 mM MnCl2, pH 7.2). Serial dilution log 10 from 2 mM to 63.2 nM of test compounds are made in 100% DMSO. The dilutions in DMSO are then diluted 50-fold in KR-buffer of which 5 μl is used in the assay, leading to a final compound concentration range in the assay from 10 μM to 0.316 nM. 5 μL/well of test compound in KR buffer (final DMSO concentration in the assay is 1%) is mixed with 5 μl/well of 250 mU/mL Lyn enzyme (final concentration in the assay is 62.5 mU/mL). Test compounds and Lyn enzyme are pre-incubated 60 minutes at room temperature, before adding 5 μL/well of 400 nM Fluorescin labeled substrate peptide (Blk/Lyntide substrate, e.g. #R7188/#R7233, Molecular Devices) in KR-buffer. Final peptide substrate concentration in assay is 100 nM. The kinase assay is started by adding 5 μL/well of 8 μM ATP in KR-buffer (final ATP concentration is 2 μM ATP, Km ATP in Lyn IMAP assay). Following incubation for 2 h at room temperature the enzyme reaction is stopped by adding 40 μL/well IMAP Progressive Binding Solution (according to suppliers (Molecular Devices) protocol using 75% 1× buffer A and 25% 1× buffer B with 1:600 Progressive Binding Solution). After 60 min incubation at room temperature in the dark the FP signal is read. Fluorescence at 535 nm is measured using parallel and perpendicular filters to determine differences in rotation due to binding of the phosphorylated substrate peptide to the beads. Values are calculated as percentage of the difference in readout (ΔmPi) of the controls with and without ATP. EC50 values are determined by curve fitting of the experimental results using Activity Base.

FynT enzyme = biological target: T2, FynT enzyme (Homo sapiens, UniProt P06241); assay: FynT enzyme activity, IMAP fluorescence polarization assay; details: 60 min pre-incubation, 0.2 μM ATP (Km)
T2 construct: purchased Biomol SE-287
Protocol: FynT enzyme activity is measured using the IMAP (immobilized metal ion affinity-based fluorescence polarization) assay as outlined below.
(§1) FynT enzyme (Biomol catalog# SE-287), is diluted to 0.5 μg/mL in KR buffer (10 mM Tris-HCl, 10 mM MgCl2, 0.01% Tween-20, 0.05% NaN3, 1 mM DTT, 2 mM MnCl2, pH 7.2). Serial dilution log 10 from 2 mM to 63.2 nM of test compounds are made in 100% DMSO. The dilutions in DMSO are then diluted 50-fold in KR-buffer of which 5 μl is used in the assay, leading to a final compound concentration range in the assay from 10 μM to 0.316 nM. 5 μL/well of test compound in KR buffer (final DMSO concentration in the assay is 1%) is mixed with 5 μl/well of 0.5 μg/mL FynT enzyme (final concentration in the assay is 125 ng/mL). Test compounds and FynT enzyme are pre-incubated 60 minutes at room temperature, before adding 5 μL/well of 400 nM Fluorescin labeled substrate peptide (p34cdc2 substrate peptide, e.g. #R7157/#R7172, Molecular Devices) in KR-buffer. Final peptide substrate concentration in assay is 100 nM. The kinase assay is started by adding 5 μL/well of 0.8 μM ATP in KR-buffer (final ATP concentration is 0.2 μM ATP, Km ATP in FynT IMAP assay). Following incubation for 2 h at room temperature the enzyme reaction is stopped by adding 40 μL/well IMAP Progressive Binding Solution (according to suppliers (Molecular Devices) protocol using 75% 1× buffer A and 25% 1× buffer B with 1:600 Progressive Binding Solution). After 60 min incubation at room temperature in the dark the FP signal is read. Fluorescence at 535 nm is measured using parallel and perpendicular filters to determine differences in rotation due to binding of the phosphorylated substrate peptide to the beads. Values are calculated as percentage of the difference in readout (ΔmPi) of the controls with and without ATP. EC50 values are determined by curve fitting of the experimental results using Activity Base.

Src enzyme = biological target: T3, Src enzyme (Homo sapiens, UniProt P12931); assay: Src enzyme activity, IMAP fluorescence polarization assay; details: 60 min pre-incubation, 4 μM ATP (Km)
T3 construct: purchased Millipore 14-326
Protocol: Src enzyme activity is measured using the IMAP (immobilized metal ion affinity-based fluorescence polarization) assay as outlined below.
Src enzyme (Millipore catalog#14-326), is diluted to 0.8 U/mL in KR buffer (10 mM Tris-HCl, 10 mM MgCl2, 0.01% Tween-20, 0.05% NaN3, 1 mM DTT, 2 mM MnCl2, pH 7.2).
as §1, with “Serial” for “FynT enzyme (Biomol catalog# SE-287), is diluted to 0.5 μg/mL in KR buffer (10 mM Tris-HCl, 10 mM MgCl2, 0.01% Tween-20, 0.05% NaN3, 1 mM DTT, 2 mM MnCl2, pH 7.2). Serial”, “0.8 U/mL Src” for “0.5 μg/mL FynT”, “0.2 U/mL).” for “125 ng/mL).”, “Src” for “FynT”, “16” for “0.8”, “4” for “0.2”

Lck enzyme = biological target: T4, Lck enzyme (Homo sapiens, UniProt P06239); assay: Lck enzyme activity, IMAP fluorescence polarization assay; details: 60 min pre-incubation, 6 μM ATP (Km)
T4 construct: purchased Millipore 14-442
Protocol: Lck enzyme activity is measured using the IMAP (immobilized metal ion affinity-based fluorescence polarization) assay as outlined below.
Lck enzyme (Millipore catalog#14-442), is diluted to 0.4 U/mL in KR buffer (10 mM Tris-HCl, 10 mM MgCl2, 0.01% Tween-20, 0.05% NaN3, 1 mM DTT, 2 mM MnCl2, pH 7.2). Serial dilution log 10 from 2 mM to 63.2 nM of test compounds are made in 100% DMSO. The dilutions in DMSO are then diluted 50-fold in KR-buffer of which 5 μl is used in the assay, leading to a final compound concentration range in the assay from 10 μM to 0.316 nM. 5 μL/well of test compound in KR buffer (final DMSO concentration in the assay is 1%) is mixed with 5 μl/well of 0.4 U/mL Lck enzyme (final concentration in the assay is 0.1 U/mL). Test compounds and Lck enzyme are pre-incubated 60 minutes at room temperature, before adding 5 μL/well of 400 nM Fluorescin labeled substrate peptide (p34cdc2 substrate peptide, e.g. #R7157/#R7172, Molecular Devices) in KR-buffer. Final peptide substrate concentration in assay is 100 nM. The kinase assay is started by adding 5 μL/well of 24 μM ATP in KR-buffer (final ATP concentration is 6 μM ATP, Km ATP in Lck IMAP assay). Following incubation for 2 h at room temperature the enzyme reaction is stopped by adding 40 μL/well IMAP Progressive Binding Solution (according to suppliers (Molecular Devices) protocol using 75% 1× buffer A and 25% 1× buffer B with 1:600 Progressive Binding Solution). After 60 min incubation at room temperature in the dark the FP signal is read. Fluorescence at 535 nm is measured using parallel and perpendicular filters to determine differences in rotation due to binding of the phosphorylated substrate peptide to the beads. Values are calculated as percentage of the difference in readout (ΔmPi) of the controls with and without ATP. EC50 values are determined by curve fitting of the experimental results using Activity Base.

Measured: EC50

T4 sequence (P06239 whole entry): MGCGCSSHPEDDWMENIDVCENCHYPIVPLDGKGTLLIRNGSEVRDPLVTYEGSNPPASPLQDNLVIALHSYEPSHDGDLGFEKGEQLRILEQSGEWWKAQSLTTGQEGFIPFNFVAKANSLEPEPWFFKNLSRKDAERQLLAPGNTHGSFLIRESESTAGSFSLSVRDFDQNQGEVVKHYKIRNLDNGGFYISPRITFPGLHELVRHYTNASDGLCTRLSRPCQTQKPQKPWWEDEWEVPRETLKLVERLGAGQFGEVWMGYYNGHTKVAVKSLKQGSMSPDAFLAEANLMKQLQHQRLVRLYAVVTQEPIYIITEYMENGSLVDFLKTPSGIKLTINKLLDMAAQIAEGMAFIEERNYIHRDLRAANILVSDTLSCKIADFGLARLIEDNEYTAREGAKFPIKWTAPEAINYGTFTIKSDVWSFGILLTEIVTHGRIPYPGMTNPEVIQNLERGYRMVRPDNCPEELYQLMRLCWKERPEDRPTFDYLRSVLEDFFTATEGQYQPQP
T2 sequence (P06241 1-534 isoform P06241-2): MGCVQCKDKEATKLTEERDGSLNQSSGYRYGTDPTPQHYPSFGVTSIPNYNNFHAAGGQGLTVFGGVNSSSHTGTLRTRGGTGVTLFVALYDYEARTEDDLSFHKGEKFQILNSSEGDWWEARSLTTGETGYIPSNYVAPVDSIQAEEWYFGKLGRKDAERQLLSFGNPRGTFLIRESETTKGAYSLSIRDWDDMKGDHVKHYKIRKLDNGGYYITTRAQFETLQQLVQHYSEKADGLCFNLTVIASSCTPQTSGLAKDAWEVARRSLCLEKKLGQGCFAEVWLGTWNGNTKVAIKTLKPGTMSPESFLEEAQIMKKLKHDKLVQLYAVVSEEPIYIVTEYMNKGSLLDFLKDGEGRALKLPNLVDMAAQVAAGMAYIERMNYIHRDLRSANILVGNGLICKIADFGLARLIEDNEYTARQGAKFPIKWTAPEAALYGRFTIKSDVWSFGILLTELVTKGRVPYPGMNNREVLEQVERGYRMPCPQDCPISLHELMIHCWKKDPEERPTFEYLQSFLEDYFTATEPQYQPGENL
T3 sequence (P12931 whole entry): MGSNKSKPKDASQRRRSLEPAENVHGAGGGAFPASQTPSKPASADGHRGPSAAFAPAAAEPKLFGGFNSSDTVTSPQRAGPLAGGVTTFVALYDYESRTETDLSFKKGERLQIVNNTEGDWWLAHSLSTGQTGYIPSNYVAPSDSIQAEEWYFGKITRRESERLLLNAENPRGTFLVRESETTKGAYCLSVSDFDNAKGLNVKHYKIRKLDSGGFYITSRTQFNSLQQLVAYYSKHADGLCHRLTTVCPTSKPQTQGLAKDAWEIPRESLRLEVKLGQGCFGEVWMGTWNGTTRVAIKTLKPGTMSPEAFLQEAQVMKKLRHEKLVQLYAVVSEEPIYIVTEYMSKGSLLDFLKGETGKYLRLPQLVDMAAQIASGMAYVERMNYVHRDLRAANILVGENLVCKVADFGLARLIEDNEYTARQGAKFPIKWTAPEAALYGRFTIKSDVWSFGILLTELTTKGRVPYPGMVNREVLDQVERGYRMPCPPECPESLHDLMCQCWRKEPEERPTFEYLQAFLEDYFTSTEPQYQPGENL
T1 sequence (P07948 whole entry): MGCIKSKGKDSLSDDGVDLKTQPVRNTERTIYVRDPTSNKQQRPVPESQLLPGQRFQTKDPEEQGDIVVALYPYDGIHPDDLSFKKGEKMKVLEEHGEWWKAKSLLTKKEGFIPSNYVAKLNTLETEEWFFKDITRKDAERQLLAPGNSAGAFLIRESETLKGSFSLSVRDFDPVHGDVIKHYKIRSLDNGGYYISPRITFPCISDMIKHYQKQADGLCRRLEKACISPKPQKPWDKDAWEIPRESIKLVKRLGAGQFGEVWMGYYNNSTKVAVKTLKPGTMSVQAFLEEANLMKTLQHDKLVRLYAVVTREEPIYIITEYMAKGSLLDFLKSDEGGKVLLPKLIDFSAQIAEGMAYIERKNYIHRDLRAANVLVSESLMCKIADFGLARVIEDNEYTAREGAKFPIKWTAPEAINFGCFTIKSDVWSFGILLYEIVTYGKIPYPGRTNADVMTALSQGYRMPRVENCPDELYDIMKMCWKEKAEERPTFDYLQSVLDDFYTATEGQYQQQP

C=CC(=O)N1CCC[C@H]1c1nc(-c2ccc(C(=O)Nc3cc(C)ccn3)cc2)c2c(C)nccn12 [Example 11, (S)-4-(3-(1-Acryloylpyrrolidin-2-yl)-8-methylimidazo[1,5-a]pyrazin-1-yl)-N-(4-methylpyridin-2-yl)benzamide]
≥ 1000 nM: all assays above

CCCc1ccnc(NC(=O)c2ccc(-c3nc([C@@H]4CCCCN4C(=O)c4ccnc(Cl)n4)n4ccnc(C)c34)cc2)c1 [Example 5, (S)-4-(3-(1-(2-chloropyrimidine-4-carbonyl)piperidin-2-yl)-8-methylimidazo[1,5-a]pyrazin-1-yl)-N-(4-propylpyridin-2-yl)benzamide]
≥ 1000 nM: all assays above

CC#CC(=O)N1CCC[C@H]1c1nc(-c2ccc(C(=O)Nc3cc(C#N)ccn3)cc2)c2c(C)nccn12 [Example 32, (S)-4-(3-(1-but-2-ynoylpyrrolidin-2-yl)-8-methylimidazo[1,5-a]pyrazin-1-yl)-N-(4-cyanopyridin-2-yl)benzamide]
≥ 1000 nM: all assays above

CCCc1ccnc(NC(=O)c2ccc(-c3nc([C@@H]4CCCCN4C(=O)/C=C/COC)n4ccnc(C)c34)cc2)c1 [Example 34, (S,E)-4-(3-(1-(4-methoxybut-2-enoyl)piperidin-2-yl)-8-methylimidazo[1,5-a]pyrazin-1-yl)-N-(4-propylpyridin-2-yl)benzamide]
≥ 1000 nM: all assays above

CC#CC(=O)N1CCC[C@H]1c1nc(-c2ccc(C(=O)Nc3ccccn3)cc2)c2c(C)nccn12 [Example 1, (S)-4-(3-(1-But-2-ynoylpyrrolidin-2-yl)-8-methylimidazo[1,5-a]pyrazin-1-yl)-N-(pyridin-2-yl)benzamide]
≥ 1000 nM: all assays above

Cc1nccn2c([C@@H]3CCCCN3C(=O)c3ccnc(Cl)n3)nc(-c3ccc(C(=O)Nc4cc(C(F)(F)F)ccn4)cc3)c12 [Example 17, (S)-4-(3-(1-(2-chloropyrimidine-4-carbonyl)piperidin-2-yl)-8-methylimidazo[1,5-a]pyrazin-1-yl)-N-(4-(trifluoromethyl)pyridin-2-yl)benzamide]
≥ 1000 nM: all assays above

Cc1nccn2c([C@@H]3CCCN3C(=O)/C=C/CN(C)C)nc(-c3ccc(C(=O)Nc4ccccn4)cc3)c12 [Example 31, (S,E)-4-(3-(1-(4-(dimethylamino)but-2-enoyl)pyrrolidin-2-yl)-8-methylimidazo[1,5-a]pyrazin-1-yl)-N-(pyridin-2-yl)benzamide]
≥ 1000 nM: all assays above

C=CC(=O)N1CCC[C@H]1c1nc(-c2ccc(C(=O)Nc3cc(OC)ccn3)cc2)c2c(C)nccn12 [Example 12, (S)-4-(3-(1-acryloylpyrrolidin-2-yl)-8-methylimidazo[1,5-a]pyrazin-1-yl)-N-(4-methoxypyridin-2-yl)benzamide]
≥ 1000 nM: all assays above

C=CC(=O)N1CCC[C@H]1c1nc(-c2ccc(C(=O)Nc3cc(CC)ccn3)cc2)c2c(C)nccn12 [Example 14, (S)-4-(3-(1-Acryloylpyrrolidin-2-yl)-8-methylimidazo[1,5-a]pyrazin-1-yl)-N-(4-ethylpyridin-2-yl)benzamide]
≥ 1000 nM: all assays above

CC#CC(=O)N1CCC[C@H]1c1nc(-c2ccc(C(=O)Nc3cc(CCC)ccn3)cc2)c2c(C)nccn12 [Example 33, (S)-4-(3-(1-but-2-ynoylpyrrolidin-2-yl)-8-methylimidazo[1,5-a]pyrazin-1-yl)-N-(4-propylpyridin-2-yl)benzamide]
≥ 1000 nM: all assays above
